# Test results from US20050152959A1, “Use of a lysolipid for the preparation of a composition for transfection of a polynucleotide into a cell” (Transgene S. A., priority 2001, published 2005).
# What was measured:
# RENCA cells = assay: Intratumoral transfer of luciferase plasmid pTG11236 with HPC into RENCA tumors, luciferase measurement; format: in vivo; conditions: RENCA tumors in B6D2 mice; 50 μl intratumoral, 0.4, 2 or 10 μg plasmid pTG11236 with 2 mg/ml HPC; 24 hours after last injection; compared with no HPC
# Description: (§1) FIG. 1: show the effect of hexadecylphosphocholine (HPC) on intratumoral transfer of the luciferase-plasmid (pTG11236) into RENCA cells. Bars are means of RLU per minute per mg protein. Luciferase activity was measured 24 hours after the last injection of 50 μl of a composition, comprising between 0.4, 2 or 10 μg of plasmid and 2 mg/ml of HPC, into B6D2 mice. Plasmid DNA (pTG11236: CMV promoter, β-globin intron, luciferase cassette, 5739 base pairs) was prepared according to Bischoff et al., Analytical Biochemistry 254 (1997), 69-81. RENCA or P815 cells were injected under the skin of 6 to 8 week old B6D2 female mice (3 10^5 cells/animal). Eleven days after the injection of the cells, palpable tumours appear. Prior to intratumoral injection HPC was mixed with the plasmid DNA preparation Then, various quantities of plasmid and HPC were directly injected into the tumor three times (with three day-time interval between subsequent injection). Twenty four hours after injection of the composition, the mice were killed and the tumors were retrieved and frozen. Luciferase activity was quantified on whole tumor extracts using a conventional measurement kit (Luciferase Assay System, Promega). […] Luciferase activity was expressed as number of RLU emitted per minute, per mg of protein. Protein was measured on 10 μl samples using a VCA Protein Assay kit (Pierce).
# P815 cells = assay: Intratumoral transfer of luciferase plasmid pTG11236 with HPC into P815 tumors, luciferase measurement; format: in vivo; conditions: P815 tumors in B6D2 mice; 50 μl intratumoral, 10 μg plasmid pTG11236 with 0.4 mg/ml HPC; 24 hours after last injection; compared with no HPC
# Description: as §1, with “FIG. 2:” for “FIG. 1:”, “of HPC” for “of hexadecylphosphocholine (HPC)”, “into P815” for “into RENCA”, “comprising” for “comprising between 0.4, 2 or”, “and 0.4” for “and 2”, “Promega). Briefly, tumors were diluted in 200 μl of reporter lysis buffer (Promega).” for “Promega).”
compound,measurement,setting,value
"CCCCCCCCCCCCCCCCOP(=O)([O-])OCC[N+](C)(C)C [HPC, hexadecylphosphocholine]",Luciferase activity of the injected tumors (RLU per minute per mg protein),RENCA cells,higher
same,Luciferase activity of the injected tumors (RLU per minute per mg protein),P815 cells,higher
